Results: patent publication US11976072B2, “Diacylglycerol kinase modulating compounds” (priority 2021, dated 2024)

What was measured:
human DGKα = human DGKα (Homo sapiens, UniProt P23743); assay: DGKα Biochemical Activity Assay (ADP-Glo); conditions: recombinant DGKα 1 nM, 100 μM ATP, 18:1 DAG/POPS/octylglucoside micelles, 1 hour at 25° C.; geometric mean; read-out: HTBS DGKa 1X ATP KM IC50;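 note: luminescent detection of ADP produced as DGKα phosphorylates DAG to phosphatidic acid, IC50 from four-parameter nonlinear curve fit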
Sequence of human DGKα (P23743 whole entry): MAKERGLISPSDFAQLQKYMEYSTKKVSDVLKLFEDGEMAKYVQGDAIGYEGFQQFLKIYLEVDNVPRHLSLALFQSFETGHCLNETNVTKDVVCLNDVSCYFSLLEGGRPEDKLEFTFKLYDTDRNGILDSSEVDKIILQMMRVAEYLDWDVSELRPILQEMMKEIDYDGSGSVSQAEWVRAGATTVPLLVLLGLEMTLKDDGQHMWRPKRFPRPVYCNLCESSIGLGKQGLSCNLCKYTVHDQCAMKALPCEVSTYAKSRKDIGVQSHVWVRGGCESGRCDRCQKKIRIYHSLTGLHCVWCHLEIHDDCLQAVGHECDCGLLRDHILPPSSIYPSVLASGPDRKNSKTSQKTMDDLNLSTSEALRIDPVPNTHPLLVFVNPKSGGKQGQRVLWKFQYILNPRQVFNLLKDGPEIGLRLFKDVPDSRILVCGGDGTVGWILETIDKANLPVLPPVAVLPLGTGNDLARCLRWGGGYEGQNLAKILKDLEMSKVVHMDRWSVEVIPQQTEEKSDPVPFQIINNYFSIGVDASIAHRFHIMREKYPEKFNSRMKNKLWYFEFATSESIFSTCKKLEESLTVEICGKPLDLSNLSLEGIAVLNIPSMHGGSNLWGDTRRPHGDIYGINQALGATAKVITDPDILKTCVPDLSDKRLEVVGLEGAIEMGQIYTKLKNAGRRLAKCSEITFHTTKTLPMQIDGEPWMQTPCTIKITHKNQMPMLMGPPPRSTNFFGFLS

[1] = system: Jurkat NFκB-luciferase cells; assay: Jurkat NFκB-Luciferase Assay; assay type: cell-based; conditions: Homo sapiens; Jurkat NFκB-luciferase cells activated with anti-CD3 antibody (OKT3), 2.5 hrs at 37° C.; geometric mean; read-out: DGK NFKb Luciferase EC50
Summary of the method: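 Jurkat NFκB-luciferase reporter cells at 1 million cells/ml in RPMI with 10% FBS were added to antibody-coated, compound-containing wells. Luciferase activity read by One-Glo Ex luminescence 7 minutes after reagent addition.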

| SMILES | IC50 (human DGKα) | EC50 [1] |
| --- | --- | --- |
| Cc1nnc2nc(N3CCOCc4c(C#CC(C)(C)NC(=O)c5cn(C)nc5C(F)F)cccc43)c3c(F)cccc3n12 [Example 139, 3-(difluoromethyl)-N-[3-[1-(6-fluoro-1-methyl-[1,2,4]triazolo[4,3-a]quinazolin-5-yl)-3,5-dihydro-2H-4,1-benzoxazepin-6-yl]-1,1-dimethyl-prop-2-ynyl]-1-methyl-pyrazole-4-carboxamide] | 72.6 nM | 41.3 nM |
| Cc1nnc2nc(N3CCOCc4c3ccnc4C#CC(C)(C)C(F)(F)F)c3c(F)cccc3n12 [Example 140, 1-(6-fluoro-1-methyl-[1,2,4]triazolo[4,3-a]quinazolin-5-yl)-6-(4,4,4-trifluoro-3,3-dimethylbut-1-yn-1-yl)-1,2,3,5-tetrahydropyrido[4,3-e][1,4]oxazepine] | 4.52 nM | 4.36 nM |
| Cc1nnc2nc(N3CCOCc4c3ccnc4C#CC3(C)CC3)c3c(F)cccc3n12 [Example 141, 1-(6-fluoro-1-methyl-[1,2,4]triazolo[4,3-a]quinazolin-5-yl)-6-((1-methylcyclopropyl)ethynyl)-1,2,3,5-tetrahydropyrido[4,3-e][1,4]oxazepine] | 4.76 nM | 5.11 nM |
| Cc1nnc2nc(N3CCOCc4c3ccnc4C#CC3(C(F)(F)F)CC3)c3c(F)cccc3n12 [Example 143, 1-(6-fluoro-1-methyl-[1,2,4]triazolo[4,3-a]quinazolin-5-yl)-6-((1-(trifluoromethyl)cyclopropyl)ethynyl)-1,2,3,5-tetrahydropyrido[4,3-e][1,4]oxazepine] | 3.85 nM | 3.61 nM |
| Cc1nnc2nc(N3CCOCc4c(C#CC(C)(C)NC(=O)C(C)(C)C(F)(F)F)cccc43)c3c(F)cccc3n12 [Example 144, 3,3,3-trifluoro-N-(4-(1-(6-fluoro-1-methyl-[1,2,4]triazolo[4,3-a]quinazolin-5-yl)-1,2,3,5-tetrahydrobenzo[e][1,4]oxazepin-6-yl)-2-methylbut-3-yn-2-yl)-2,2-dimethylpropanamide] | 4.73 nM | 11.1 nM |
| Cc1nnc2nc(N3CCOCc4c(C#CC5(NC(=O)C6(C(F)(F)F)CC6)CC5)cccc43)c3c(F)cccc3n12 [Example 145, N-(1-((1-(6-fluoro-1-methyl-[1,2,4]triazolo[4,3-a]quinazolin-5-yl)-1,2,3,5-tetrahydrobenzo[e][1,4]oxazepin-6-yl)ethynyl)cyclopropyl)-1-(trifluoromethyl) cyclopropane-1-carboxamide] | 6.87 nM | 1.21 nM |
| Cc1nnc2nc(N3CCOCc4c(C#CC(C)(C)NC(=O)OC(C)C(F)(F)F)cccc43)c3c(F)cccc3n12 (centres unmarked) [Example 146, 1,1,1-trifluoropropan-2-yl (4-(1-(6-fluoro-1-methyl-[1,2,4]triazolo[4,3-a]quinazolin-5-yl)-1,2,3,5-tetrahydrobenzo[e][1,4]oxazepin-6-yl)-2-methylbut-3-yn-2-yl)carbamate] | 3.54 nM | 20.5 nM |
| Cc1nnc2nc(N3CCCc4c(C#CC(C)(C)NC(=O)C5(C(F)(F)F)CC5)cccc43)c3c(F)cccc3n12 [Example 151, N-(4-(1-(6-fluoro-1-methyl-[1,2,4]triazolo[4,3-a]quinazolin-5-yl)-1,2,3,4-tetrahydroquinolin-5-yl)-2-methylbut-3-yn-2-yl)-1-(trifluoromethyl)cyclopropane-1-carboxamide] | 2.41 nM | 3.59 nM |
| Cc1nnc2nc(N3CCCc4c(C#CC(C)(C)O)cc(F)cc43)c3c(F)cccc3n12 [Example 152, 4-(7-fluoro-1-(6-fluoro-1-methyl-[1,2,4]triazolo[4,3-a]quinazolin-5-yl)-1,2,3,4-tetrahydroquinolin-5-yl)-2-methylbut-3-yn-2-ol] | 34.6 nM | 53.9 nM |
| Cc1nnc2nc(N3CCOCc4c(N5CC6CC(C5)C6(F)F)cccc43)c3c(F)cccc3n12 [Example 153] | 82.8 nM | 3.98 nM |
| Cc1nnc2nc(N3CCOCc4c(N5CCC(C)(C#N)CC5)cccc43)c3c(F)cccc3n12 [Example 154, 1-[1-(6-fluoro-1-methyl-[1,2,4]triazolo[4,3-a]quinazolin-5-yl)-3,5-dihydro-2H-4,1-benzoxazepin-6-yl]-4-methyl-piperidine-4-carbonitrile] | 7.42 nM | 6.33 nM |
| Cc1nnc2nc(N3CCCc4c(N5CCC(C)(C#N)CC5)cccc43)c3c(F)cccc3n12 [Example 155, 1-[1-(6-fluoro-1-methyl-[1,2,4]triazolo[4,3-a]quinazolin-5-yl)-3,4-dihydro-2H-quinolin-5-yl]-4-methyl-piperidine-4-carbonitrile] | 25.6 nM | 5.13 nM |
| Cc1nnc2nc(N3CCCc4c(N5CCC(C)(F)CC5)cccc43)c3c(F)cccc3n12 [Example 156, 6-fluoro-5-[5-(4-fluoro-4-methyl-1-piperidyl)-3,4-dihydro-2H-quinolin-1-yl]-1-methyl-[1,2,4]triazolo[4,3-a]quinazoline] | 40.2 nM | 1.02 nM |

Further compounds by falling IC50 (human DGKα), results first:

| IC50 (human DGKα) | EC50 [1] | SMILES |
| --- | --- | --- |
| 28.9 nM | 43.3 nM | Cc1nnc2nc(N3CCOCc4c(C#CC(C)(C)NC(=O)c5cn(C)nc5C(F)(F)F)cccc43)c3c(F)cccc3n12 [Example 138, N-(4-(1-(6-fluoro-1-methyl-[1,2,4]triazolo[4,3-a]quinazolin-5-yl)-1,2,3,5-tetrahydrobenzo[e][1,4]oxazepin-6-yl)-2-methylbut-3-yn-2-yl)-1-methyl-3-(trifluoromethyl)-1H-pyrazole-4-carboxamide] |
| 16.4 nM | 5.03 nM | Cc1nnc2nc(N3CCOCc4c3ccnc4C#CC3(C(C)(F)F)CC3)c3c(F)cccc3n12 [Example 142, 6-((1-(1,1-difluoroethyl)cyclopropyl)ethynyl)-1-(6-fluoro-1-methyl-[1,2,4]triazolo[4,3-a]quinazolin-5-yl)-1,2,3,5-tetrahydropyrido[4,3-e][1,4]oxazepine] |
| 14.1 nM | 5.38 nM | Cc1nnc2nc(N3CCCc4c(C#CC(C)(C)NC(=O)OC(C)C(F)(F)F)cccc43)c3c(F)cccc3n12 (centres unmarked) [Example 149, 1,1,1-trifluoropropan-2-yl (4-(1-(6-fluoro-1-methyl-[1,2,4]triazolo[4,3-a]quinazolin-5-yl)-1,2,3,4-tetrahydroquinolin-5-yl)-2-methylbut-3-yn-2-yl)carbamate] |
| 11.5 nM | 2.48 nM | Cc1nnc2nc(N3CCCc4c(C#CC(C)(C)NC(=O)OC(C)(C)C)cccc43)c3c(F)cccc3n12 [Example 150, Tert-Butyl (4-(1-(6-fluoro-1-methyl-[1,2,4]triazolo[4,3-a]quinazolin-5-yl)-1,2,3,4-tetrahydroquinolin-5-yl)-2-methylbut-3-yn-2-yl)carbamate] |
| 4.36 nM | 6.03 nM | Cc1nnc2nc(N3CCOCc4c(C#CC(C)(C)NC(=O)OC(C)(C)C)cccc43)c3c(F)cccc3n12 [Example 148, tert-butyl (4-(1-(6-fluoro-1-methyl-[1,2,4]triazolo[4,3-a]quinazolin-5-yl)-1,2,3,5-tetrahydrobenzo[e][1,4]oxazepin-6-yl)-2-methylbut-3-yn-2-yl)carbamate] |
| 3.16 nM | 7.74 nM | Cc1nnc2nc(N3CCOCc4c(C#CC(C)(C)NC(=O)C5(C(F)(F)F)CC5)cccc43)c3c(F)cccc3n12 [Example 147, N-(4-(1-(6-fluoro-1-methyl-[1,2,4]triazolo[4,3-a]quinazolin-5-yl)-1,2,3,5-tetrahydrobenzo[e][1,4]oxazepin-6-yl)-2-methylbut-3-yn-2-yl)-1-(trifluoromethyl) cyclopropane-1-carboxamide] |
